According to patent publication US8114645B2 (priority 2006, dated 2012):
Like-named read-outs stand apart in the source and are kept apart here.

Key:
[1] = tested on: E. coli DP10 expressing MevT gene constructs; experiment: Fatty acid supplementation of growth inhibited cells, 96-well plates, OD; assay type: cell-based; conditions: 100 μg/ml fatty acid with 400 μg/ml Brij, defined C medium, 96-well plate, arabinose induced; for growth of MevT expressing cells (pBad33MevT): E. coli DP10 pBad33MevT; for growth of cells containing pHMGS: E. coli DP10 pHMGS
Protocol: Media components and chemicals were purchased from Sigma-Aldrich (St. Louis, Mo.) and Fisher Scientific (Pittsburgh, Pa.). For cloning and propagation of E. coli strains harboring the various recombinant pathways, Luria broth with Miller's modification (Sigma) was used with appropriate antibiotics for plasmid selection and 0.06% glucose for the repression of PBAD and PLAC promoter systems. DL-mevalonate used for media supplementation was prepared by mixing 1 volume of 2 M DL-mevalonic acid lactone (Sigma-Aldrich) with 1.02 volumes of 2 M KOH and incubating at 37° C. for 30 min. Campos et al. (2001) Biochem J 353, 59-67. […] Enzymes for molecular biology were purchased from New England Biolabs (Beverly, Mass.) and Invitrogen. E. coli strains TOP 10 and DH10B, both from Invitrogen, were used for cloning and plasmid construction.
The optical density of samples taken from cultures in baffled flasks was measured using a UV-Spectrophotometer (Beckman), while the OD600 of cultures in 96-well microtiter plates was measured using a microtiter plate reader (SpectraMax, Molecular Devices).
E. coli DP10 cells harboring pBad33, pBad33MevT, pMevT(C159A), pHMGS, or pHMGSR were incubated and induced in 96-well plates in fully defined C medium containing 50 μg/ml chloramphenicol (see material and methods) with supplemental cis-Δ^9-18:1, 16:0, cis-Δ^9-16:1, or a equal mass mixture of 16:0 and cis-Δ^9-16:1. […] Overnight starter cultures were used to inoculate fresh C medium in a 96-well microtiter plate.

[2] = tested on: E. coli strains carrying a temperature sensitive fabD allele; conditions: Harder et al. 1972, 1974; cited from earlier work
[3] = tested on: E. coli DP10 containing pBad33MevT, pHMGS or inactive controls; experiment: Cell growth with increased supplementation of saturated fatty acid 16:0, baffled shake flasks, OD600; assay type: cell-based
[4] = tested on: E. coli DH10B harboring pBad33MevT or pBad33; conditions: LB with 10 g/L NaCl vs 0.5 g/L NaCl
Protocol: To further test if cells inhibited by the accumulation of HMG-CoA are suffering from osmotic stress, cells harboring pBad33MevT or pBad33 (the empty vector control) were incubated and induced in Luria Broth (LB) media with low (0.5 g/L) and high (10 g/L) concentrations of NaCl. […] Both culture media were supplemented with 1% (wt/vol) glycerol and 50 μg/ml chloramphenicol. Starter cultures of DH10B harboring either pBad33MevT or pBad33 were inoculated from single colonies and incubated overnight at 37° C. in LB media supplemented with 0.06% glucose (to repress the PBAD promoter) and chloramphenicol. Overnight starter cultures were diluted to an OD600 of 0.05 in either the low or high NaCl media in baffled shake flasks, incubated at 37° C. with continuous shaking and induced with the addition of 2 mM arabinose at an OD600 of approximately 0.39. The optical density of the culture was measured using a UV-Spectrophotometer (Beckman).

[5] = tested on: temperature sensitive mutants of fabB; conditions: Broekman and Steenbakkers 1973; cited from earlier work
E. coli = experiment: Effect of extra-cellular mevalonate on growth of E. coli; assay type: cell-based; conditions: high extra-cellular concentrations
[6] = tested on: E. coli DH10B containing plasmids pMevT, pMBIS, and pADS; experiment: Amorpha-4,11-diene production assay with mevalonate supplementation (GC-MS of dodecane overlay); assay type: cell-based; conditions: exogenous mevalonate added, tested up to 20 mM D,L-mevalonate; vs no supplementation
Protocol: Amorpha-4,11-diene production from E. coli strains expressing the full heterologous mevalonate pathway and amorphadiene synthase with or […] supplementation was assayed. E. coli DH10B containing plasmids pMevT, pMBIS, and pADS (FIGS. 5A and 5B) were grown in C medium containing 3.4% glycerol, 1% Casamino acids (BD, Franklin Lakes, N.J.), micronutrients, 50 μg/ml carbenicillin, 5 μg/ml tetracycline, and 25 μg/ml chloramphenicol with varying concentrations of exogenous mevalonate. […] Prior to inoculation, an overlay of 20% (v/v) dodecane (Sigma) was added to each culture flask to trap the volatile sesquiterpene product. […]
Dodecane/ethyl acetate extracts were analyzed on a Hewlett-Packard 6890 gas chromatograph-mass spectrometer (GC/MS). […] The resolved samples were analyzed by a Hewlett-Packard model 5973 mass selective detector that monitored ions 189 and 204 m/z. […] Since pure standards of amorpha-4,11-diene are not currently available, the concentrations were quantified in terms of caryophyllene equivalents. A standard curve for caryophyllene was determined, based on a pure standard. […]
To begin improving terpenoid production from engineered E. coli, limiting steps in the engineered pathway to amorphadiene were determined, as described in U.S. Pat. No. 7,183,089, U.S. Provisional Patent Application No. 60/802,266, Pitera et al. Metab Eng 9(2): 193-207 (2007), and as follows. […]

CCCCCCCCCCCCCCCC(=O)O [16:0, palmitic acid (hexadecanoic acid)]
growth of MevT expressing cells (pBad33MevT) [1]: improved the growth | growth of cells containing pHMGS [1]: clear, positive effect on the growth | growth at non-permissive temperatures [2]: shown to grow at non-permissive temperatures | cell growth on increasing the concentration above 100 μg/ml ([3]; 200 μg/ml vs 100 μg/ml, baffled shake flasks): no additional effect on cell growth | cell growth of the inactive pathway controls ([3]; DP10 harboring pMevT(C159A) or pHMGS(C159A), 100 or 200 μg/ml): not affected | growth inhibition caused by high expression of the MevT operon ([3]; E. coli DP10 pBad33MevT, 100 μg/ml with 400 μg/ml Brij, baffled shake flasks): completely alleviated the growth inhibition | growth of cells expressing HMGS alone ([3]; E. coli DP10 pHMGS, 100 μg/ml with 400 μg/ml Brij, baffled shake flasks): only improving the growth

[Cl-].[Na+] [NaCl]
growth of the empty vector control strain ([4]; DH10B containing pBad33): did not significantly affect | growth inhibition of E. coli cells expressing the MevT operon from pBad33MevT ([4]; DH10B, 2 mM arabinose): effectively alleviated the growth inhibition | osmolality of the culture medium (culture medium containing NaCl at 0.5 g/L): about 125 mOsm/kg H2O | osmolality of the culture medium (culture medium containing NaCl at 10 g/L): about 452 mOsm/kg H2O

CCCCCC/C=C\CCCCCCCC(=O)O [cis-Δ^9-16:1, palmitoleic acid]
growth of MevT expressing cells (pBad33MevT) [1]: detrimental to the growth | growth of cells containing pHMGS [1]: detrimental to the growth | growth at non-permissive temperatures [2]: not

CCCCCCCC/C=C\CCCCCCCC(=O)O [cis-Δ^9-18:1, oleic acid]
growth of MevT expressing cells (pBad33MevT) [1]: to a lesser extent, cis-Δ^9-18:1 improved the growth | growth under non-permissive conditions [5]: can grow

CC(O)(CCO)CC(=O)O (stereo not drawn) [mevalonate]
growth of E. coli (E. coli): no significant effect on the growth | production of amorphadiene [6]: increased the production of amorphadiene
